For series [1], the system named is Hedgehog pathway signaling (Gli-Luc response, OCT-SHH activated 10 Tl/2 (s12) cells). Briefly: Hedgehog signalling inhibition, Gli-Luc reporter assay (Hh Reporter assay). The class given is cell-based. On the procedure: Example 17: An In Vitro Assay which Determines the Ability of a Test Compound to Inhibit Hedgehog Signalling
Compounds to be tested were dissolved in DMSO to a concentration of 10 mM, and stored at −20° C. To activate the Hedgehog pathway in the assay cells, an octylated (lipid-modified) form of the N-terminal fragment of the Sonic Hedgehog protein (OCT-SHH) was used. This N-terminal SHH fragment is produced bacterially. See, for example, Taylor F R, et al., Biochemistry, 2001, 40: 4359-71.
Compounds were tested in the“Gli-Luc” assay below, using the cell line 10 Tl/2 (s12), wherein the cells contain a Hedgehog-responsive reporter construct utilizing Luciferase as the reporter gene. In this way, Hedgehog pathway signaling activity is measured via the Gli-Luc response.
10 Tl/2 (s12) cells were plated in a 96-well micro-titer plate (MTP) at 20,000 cells/well in full medium [DMEM with 10% FBS]. Then plates were placed in the incubator for incubation overnight (0/N), at 37° C. and 5% CO2. After 24 h, the medium was replaced with Luciferase-assay medium (DMEM with 0.5% FBS). Test compounds were thawed and diluted in assay medium at 3:1000 (about 300-fold) resulting in a starting concentration of about 0.0003 uM to 30 uM. Subsequently, 150 ul of each sample was added to the first wells (in triplicate). The MTP samples were then diluted at 3-fold dilutions to a total of seven wells, ultimately resulting in a regiment of seven dilutions in triplicate, for each compound. Next, the protein ligand OCT-SHH was diluted in Luciferase-assay medium and added to each well at a final concentration of 0.3 μg/ml. Plates were then returned to the incubator for further incubation O/N, at 37° C. and 5% CO2. After about 24 h, plates were removed from the incubator and the medium was aspirated/discarded.
Wells were washed once with assay buffer [PBS+1 mM Mg^2+ and 1 mM Ca^2+]. Then 50 μl of assay buffer was added to each well. The Luciferase assay reagent was prepared as described by the vendor (LucLite kit from Packard), and 50 μl was added to each well. Plates were incubated at room temperature (RT) for about 30 minutes after which the signals were read, again at RT, on a Topcount (Packard). […]

For series [2], the system named is HDACs (HeLa cell nuclear extracts). Kind of series: HDAC enzymatic activity inhibition assay (Biomol Color de Lys system). Particulars: class symbols. The class given is biochemical. On the procedure:
HDAC inhibitory activity was assessed using the Biomol Color de Lys system (AK-500, Biomol, Plymouth Meeting, Pa.). Briefly, HeLa cell nuclear extracts were used as a source of HDACs. Different concentrations of test compounds were serially diluted in dimethylsulfoxide (DMSO) and added to HeLa cell nuclear extracts in the presence of a colorimetric artificial substrate. […] Reactions were carried out at room temperature (25° C.) for 1 hour before addition of developer for termination. […] Data were analyzed using GraphPad Prism (v4.0a) with a sigmoidal dose response curve fitting for IC50 calculation.

[3] abbreviates: S12, Gli-Luc reporter, class symbols.

Where “and” joins values, the source holds several entries; their conditions need not be identical. Identical values can stand only once. Where only a bound is given, the exact number is not on record here.

This note sets out measurements from patent US10214514B2, “Hedgehog antagonists having zinc binding moieties” (Curis, Inc., priority 2011, dated 2019).

In general, IC50 refers to the concentration that inhibits the measured activity by half. As a reminder, the melting point is the temperature, or range, at which the solid turns liquid.

`CS(=O)(=O)c1ccc(C(=O)Nc2ccc(Cl)c(-c3ccc(/C=C/C(=O)NO)cn3)c2)c(Cl)c1` [Compound 1, (E)-2-chloro-N-(4-chloro-3-(5-(3-(hydroxyamino)-3-oxoprop-1-enyl)pyridin-2-yl)phenyl)-4-(methylsulfonyl)benzamide]: the IC50 in series [1] (setting [3]) and in series [2] was 100 to 1000 nM throughout.
For `CS(=O)(=O)c1ccc(C(=O)Nc2ccc(Cl)c(-c3ccc(C(=O)NO)cn3)c2)c(Cl)c1` [Compound 5, 6-(2-Chloro-5-(2-chloro-4-(methylsulfonyl)benzamido)phenyl)-N-hydroxynicotinamide], the IC50 in series [1] (setting [3]) and in series [2] was 100 to 1000 nM throughout.
Regarding `CS(=O)(=O)c1ccc(C(=O)Nc2ccc(Cl)c(-c3ncc(C(=O)NO)cn3)c2)c(Cl)c1` [Compound 7, 2-[2-Chloro-5-(2-chloro-4-methanesulfonyl-benzoylamino)-phenyl]-pyrimidine-5-carboxylic acid hydroxyamide], the IC50 in series [1] (setting [3]) was greater than 1000 nM; in series [2], 100 to 1000 nM.
`CS(=O)(=O)c1ccc(C(=O)Nc2ccc(Cl)c(-c3ccc(OCCCCCCC(=O)NO)cn3)c2)c(Cl)c1` [Compound 23, 2-Chloro-N-{4-chloro-3-[5-(6-hydroxycarbamoyl-hexyloxy)-pyridin-2-yl]-phenyl}-4-methanesulfonyl-benzamide] returned a melting point of 140 to 145 °C. In series [1] (setting [3]), the IC50 was 100 to 1000 nM. Moreover, the IC50 in series [2] lay in the range of 10 to 100 nM.
Turning to `O=C(CCCCCCNS(=O)(=O)c1ccc(C(=O)Nc2ccc(Cl)c(-c3ccccn3)c2)c(Cl)c1)NO` [Compound 59, 2-Chloro-N-(4-chloro-3-(pyridin-2-yl)phenyl)-4-(N-(7-(hydroxyamino)-7-oxoheptyl)sulfamoyl)benzamide], the IC50 in series [1] (setting [3]) was in the range of 10 to 100 nM; in series [2] it was 100 to 1000 nM.
For `O=C(NO)c1cnc(N2CCC(CNS(=O)(=O)c3ccc(C(=O)Nc4ccc(Cl)c(-c5ccccn5)c4)c(Cl)c3)CC2)nc1` [Compound 90, 2-(4-((3-Chloro-4-(4-chloro-3-(pyridin-2-yl)phenylcarbamoyl)phenylsulfonamido)methyl)piperidin-1-yl)-N-hydroxypyrimidine-5-carboxamide], the melting point fell in the range of 172 to 173 °C. The same compound returned an IC50 in series [1] (setting [3]) of 1 to 10 nM. This compound also registered an IC50 in series [2] of 10 to 100 nM.
On the same counts, the results for `Cc1nc(NCC2CCN(c3ncc(C(=O)NO)cn3)CC2)ccc1C(=O)Nc1ccc(Cl)c(-c2nc3ccccc3[nH]2)c1` [Compound 91, 2-(4-((5-(3-(1H-Benzo[d]imidazol-2-yl)-4-chlorophenylcarbamoyl)-6-methylpyridin-2-ylamino)methyl)piperidin-1-yl)-N-hydroxypyrimidine-5-carboxamide] are 194 to 196 °C, 10 to 100 nM and 10 to 100 nM.
For `CN(C)c1ccc2[nH]c(-c3cc(NC(=O)c4cccc(OCCCCCCC(=O)NO)c4)ccc3Cl)nc2c1` [Compound 111, N-(4-Chloro-3-(5-(dimethylamino)-1H-benzo[d]imidazol-2-yl)phenyl)-3-(7-(hydroxyamino)-7-oxoheptyloxy)benzamide], the IC50 in series [1] (setting [3]) was in the range of 100 to 1000 nM; in series [2], 10 to 100 nM.
Turning to `O=C(/C=C/c1cccc(NS(=O)(=O)c2ccc(C(=O)Nc3ccc(Cl)c(-c4ccccn4)c3)c(Cl)c2)c1)NO` [Compound 254, (E)-2-Chloro-N-(4-chloro-3-(pyridin-2-yl)phenyl)-4-(N-(3-(3-(hydroxyamino)-3-oxoprop-1-enyl)phenyl)sulfamoyl)benzamide], the IC50 was in the range of 10 to 100 nM in series [1] (setting [3]) and 100 to 1000 nM in series [2].
For the compound `COc1cc(CNc2ncc(C(=O)NO)cn2)cc(C(=O)Nc2ccc(Cl)c(-c3nc4cc(N(C)C)ccc4[nH]3)c2)c1` [Compound 258, 2-(3-(4-Chloro-3-(5-(dimethylamino)-1H-benzo[d]imidazol-2-yl)phenylcarbamoyl)-5-methoxybenzylamino)-N-hydroxypyrimidine-5-carboxamide], the melting point is 158 to 159 °C. Further, in series [1] (setting [3]), the IC50 was in the range of 10 to 100 nM. This compound had an IC50 in series [2] of 10 to 100 nM.
In the case of `COc1cc(CN(C)c2ncc(C(=O)NO)cn2)cc(C(=O)Nc2ccc(Cl)c(-c3nc4cc(N(C)C)ccc4[nH]3)c2)c1` [Compound 259, 2-((3-(4-Chloro-3-(5-(dimethylamino)-1H-benzo[d]imidazol-2-yl)phenylcarbamoyl)-5-methoxybenzyl)(methyl)amino)-N-hydroxypyrimidine-5-carboxamide], the IC50 in series [1] (setting [3]) and in series [2] was 10 to 100 nM each time.
Consider `CN(Cc1ccc(C(=O)Nc2ccc(Cl)c(-c3ccccn3)c2)c(Cl)c1)c1ncc(C(=O)NO)cn1` [Compound 263, 2-((3-Chloro-4-(4-chloro-3-(pyridin-2-yl)phenylcarbamoyl)benzyl) (methyl)amino)-N-hydroxypyrimidine-5-carboxamide], for which the IC50 in series [1] (setting [3]) fell in the range of 100 to 1000 nM; in series [2] it was 10 to 100 nM.
Take `O=C(NO)c1cnc(NS(=O)(=O)c2ccc(C(=O)Nc3ccc(Cl)c(-c4ccccn4)c3)c(Cl)c2)nc1` [Compound 265, 2-(3-Chloro-4-(4-chloro-3-(pyridin-2-yl)phenylcarbamoyl)phenylsulfonamido)-N-hydroxypyrimidine-5-carboxamide]: the IC50 in series [2] is greater than 1000 nM.
Consider `O=C(NO)c1ccc(OCCNS(=O)(=O)c2ccc(C(=O)Nc3ccc(Cl)c(-c4ccccn4)c3)c(Cl)c2)cc1` [Compound 266, 2-Chloro-N-(4-chloro-3-(pyridin-2-yl)phenyl)-4-(N-(2-(4-(hydroxycarbamoyl)phenoxy)ethyl)sulfamoyl)benzamide], for which the melting point is 138 to 139 °C. This compound also yielded an IC50 in series [1] (setting [3]) of 1 to 10 nM. The compound also showed an IC50 in series [2] of 100 to 1000 nM.
On to `COc1cc(OC)cc(C(=O)Nc2ccc(Cl)c(-c3nc4ccc(N(C)C)cc4[nH]3)c2)c1` [Compound A, reference compound], for which the IC50 is 24 nM and 13.1 nM in series [1] (Gli-Luc reporter, numeric values for reference compounds); 17 nM in series [1] (S12, Gli-Luc reporter, numeric values for reference compounds).
